Key:
[1] = test system: MM1S cells; assay: IncuCyte Zoom NK cell killing of MM1S; format: cell-based, human; conditions: E:T 2:1 and 4:1
Excerpt: (§1) FIGS. 7A-7B illustrate the ability of peripheral blood NK cells with or without B7-H3-TriKE to kill myeloma cells in live imaging IncuCyte Zoom assays. FIG. 7A is a graph showing the effects with effector:target (E:T) ratios of 2:1 and 4:1 on MM1S cells. FIG. 7B is a graph showing the effects with effector:target (E:T) ratios of 2:1 and 4:1 on U266 cells.
as §1, with “8A-8D” for “7A-7B”, “8A is a graph showing the effects with effector:target (E:T) ratios of 2:1 and 4:1 on H929 cells. FIG. 8B” for “7A”, “8C is a graph showing the effects with effector:target (E:T) ratios of 2:1 and 4:1 on RPMI-8226 cells. FIG. 8D” for “7B”
FIGS. 9A-9D illustrate the efficacy of B7-H3-TriKE with the proteasome inhibitor bortezomib (10 nM) and the immunomodulatory drug lenalidomide (5 μM). FIG. 9A is a graph showing the effect of the combination therapy on H929 cells after 48 hours. FIG. 9B is a graph showing the effect of the combination therapy on RPMI-8226 cells after 48 hours. FIG. 9C is a graph showing the effect of the combination therapy on MM1S cells after 48 hours. FIG. 9D is a graph showing the effect of the combination therapy on U266 cells after 48 hours.
The ability of peripheral blood NK cells with or without B7-H3-TriKE to kill myeloma cells was compared in live imaging IncuCyte Zoom assays with escalating doses of TriKE. Maximal killing occurred with 3 nM concentration.
The efficacy of B7-H3-TriKE with the proteasome inhibitor bortezomib (10 nM) and the immunomodulatory drug lenalidomide (5 μM) was also tested. Cytotoxicity curves were compared by repeated measures ANOVA and performed in triplicate.

[2] = test system: DU145 prostate cancer cells; assay: NK cell CD107a / IFNγ flow cytometry against DU145; format: cell-based, human; conditions: normal donor and prostate cancer patient NK cells, vs controls
Excerpt: FIG. 15A is a graph showing pooled analysis of proportion of NK cells from healthy donors or prostate cancer patients expressing CD107a+ (top) or IFNγ (bottom) against C4-2 targets (N=9 for healthy donors, N=3 for patients). FIG. 15B is a graph showing pooled analysis of proportion of NK cells from healthy donors or prostate cancer patients expressing CD107a+ (top) or IFNγ (bottom) against DU145 targets (N=9 for healthy donors, N=3 for patients). FIG. 15C is a graph showing pooled analysis of proportion of NK cells from healthy donors or prostate cancer patients expressing CD107a+ (top) or IFNγ (bottom) against LNCaP targets (N=9 for healthy donors, N=3 for patients). FIG. 15D is a graph showing pooled analysis of proportion of NK cells from healthy donors or prostate cancer patients expressing CD107a+ (top) or IFNγ (bottom) against PC3 targets (N=9 for healthy donors, N=3 for patients). * p<0.05, ** p<0.01, *** p<0.001, and **** p<0.0001.
ADCC was measured in a flow cytometry assay by evaluating degranulation via CD107a (lysosomal-associated membrane protein LAMP-1) and intracellular IFNγ production. Upon thawing, normal donor and patient-derived PBMCs or ascites cells were rested overnight (37° C., 5% CO2) in RPMI 1640 media supplemented with 10% fetal calf serum (RPMI-10). […] Samples were washed and evaluated in an LSRII flow cytometer (BD Biosciences, San Jose, CA, USA). […]

[3] = Toxicity assessment, weights of NSG mice engrafted with NK cells; format: in vivo; conditions: irradiated NSG mice, 1 million NK cells, treated three weeks, weights tracked 90 days
Protocol: As illustrated in FIGS. 32A-32F, cam1615B7-H3 TriKE mediates anti-tumor activity in vivo. Determination of in vivo activity is a critical step for translation. However, prior to evaluating the ability of the cam1615B7-H3 TriKE to induce function against tumor the potential for toxicity was assessed. To do this NSG mice were irradiated, engrafted with 1 million NK cells, treated with nothing, IL-15, or cam1615B7-H3 for three weeks, and weights were tracked over the course of 90 days post initial treatment. […] This is not surprising given the low toxicity profile of IL-15 and the safety profile of B7-H3. […] In this model, human NK cells and human high grade serous MA-148-luc cells are injected into the peritoneal cavity of NSG mice.

Substance	NK cell killing of MM1S [1]	NK cell IFNγ production against DU145 [2]	NK cell degranulation (CD107a) against DU145 [2]	body weight vs controls [3]
B7-H3 TriKE: camelid nanobodies targeting CD16 and B7-H3 joined by IL-15 and two linkers; sequence table equates the name with cam1615B7-H3	significantly enhanced killing			
cam1615B7-H3: second-generation TriKE: humanized camelid anti-CD16 VHH, human wild-type IL-15, anti-B7-H3 mAb 376.96 scFv; SEQ ID NO:1		enhanced	enhanced	no significant differences
